Results from BindingDB's records for doi:10.1016/S0960-894X(00)80679-4 (1993).

Biological target: Gastrin/cholecystokinin type B receptor (Cavia porcellus)
Test: In vitro binding affinity against Cholecystokinin type B receptor in guinea pig brain membranes

`CCCC[C@H](NC(=O)[C@H](Cc1ccc(OS(=O)(=O)O)cc1)NC(=O)OC(C)(C)C)C(=O)NCC(=O)N[C@H](Cc1c[nH]c2ccccc12)C(=O)N[C@@H](CCCC)C(=O)N[C@@H](CC(=O)O)C(=O)NCCc1ccccc1` [(S)-3-{(S)-2-[(R)-2-(2-{(S)-2-[(S)-2-tert-Butoxycarbonylamino-3-(4-sulfooxy-phenyl)-propionylamino]-hexanoylamino}-acetylamino)-3-(1H-indol-3-yl)-propionylamino]-hexanoylamino}-N-phenethyl-succinamic acid] gave an IC50 of 1 µM.
